Data taken from ChEMBL document CHEMBL1201862, “PubChem BioAssay data set” (2004).
Calls of active or inactive are those of the source. For most assays here, no stated cut-off is given here; in the data, actives have a measured EC50 and inactives only a lower limit.

Key:
[1] = viability of uninfected HEp-2 cells – cell-based, HTS, cytotoxicity control for RSV inhibitor project, dose response (AID 2410); assay type: functional; conditions: human respiratory syncytial virus
[2] = Trypanosoma cruzi growth suppression in host cells – NIH3T3 host cells, beta-gal luminescence, confirmation (AID 2044); assay type: functional, cell-based;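 further: intracellular parasites grown in NIH/3T3 mouse fibroblasts as host cells; luminescent beta-galactosidase reporter signal from transgenic T. cruzi replicating inside host cells; inhibitors lower the luminescence signal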
[3] = NIH3T3 cell viability loss – ATP luminescence, mouse fibroblasts, counter-screen, dose response (AID 2010); assay type: functional, cell-based;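 further: cells exposed to compound for about 90 hours before reading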
[4] = biological target: T1, Heat shock factor protein 1 (Mus musculus, UniProt P38532); test: decrease of HSF1-responsive luciferase luminescence – cell-based, NIH3T3, dose retest, confirmation (AID 2382); assay type: functional;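 further: NIH3T3 fibroblasts with HSF1-driven luciferase reporter stressed by proteasome inhibitor MG132; luminescence from HSF1-driven luciferase expression after 8 hours of MG132 stress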
T1 sequence (P38532 whole entry): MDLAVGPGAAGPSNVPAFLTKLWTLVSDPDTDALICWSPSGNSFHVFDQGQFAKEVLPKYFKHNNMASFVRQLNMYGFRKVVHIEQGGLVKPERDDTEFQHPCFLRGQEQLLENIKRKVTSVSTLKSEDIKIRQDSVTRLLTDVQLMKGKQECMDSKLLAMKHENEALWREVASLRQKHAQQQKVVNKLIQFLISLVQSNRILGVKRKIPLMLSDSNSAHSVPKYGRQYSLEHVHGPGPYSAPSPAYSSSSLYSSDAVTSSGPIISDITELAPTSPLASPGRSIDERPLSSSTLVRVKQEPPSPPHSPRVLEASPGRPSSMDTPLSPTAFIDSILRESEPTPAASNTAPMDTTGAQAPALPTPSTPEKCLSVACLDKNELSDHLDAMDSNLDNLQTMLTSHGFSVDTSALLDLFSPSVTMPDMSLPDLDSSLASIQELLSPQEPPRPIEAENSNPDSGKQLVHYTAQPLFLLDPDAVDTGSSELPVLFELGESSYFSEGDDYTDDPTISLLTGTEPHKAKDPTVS

Row | Structure (SMILES) | EC50 [4] | further results
1 | COc1ccc(Cn2nnc3c(O)nc(C4CCN(S(=O)(=O)c5ccc(C)cc5)CC4)nc32)cc1 | – | CC50 [1]: 15.7 µM (active)
2 | CS(=O)(=O)N1CCc2cc(-c3csc(NC(=O)C(c4ccccc4)c4ccccc4)n3)ccc21 | – | EC50 [2]: 1.45 µM (active); EC50 [3]: > 60 µM (not active)
3 | Clc1ccc(-n2cccc2CN2CCc3c([nH]c4ccccc34)C2c2ccccn2)nc1 (centres undefined) | – | CC50 [1]: 25.1 µM (active)
4 | O=C(Nc1ccc(Cl)cn1)c1ccc2c(Cl)c3c(nc2c1)CCC3 | 22.5 µM (active) | –
5 | Cn1nc([N+](=O)[O-])nc1Oc1ccccc1 | – | EC50 [2]: 0.459 µM (active); EC50 [3]: > 60 µM (not active)
6 | C[n+]1c(/C=C/c2ccc3c(c2)OCO3)ccc2ccccc21 | 0.181 µM (active) | –
7 | COC(=O)C(Cc1ccccc1)NC(=O)CNC(=O)c1sc2ccccc2c1Cl (centres undefined) | > 195 µM (not active) | –
8 | Cc1occc1-c1nc(-c2ccncc2)no1 | – | CC50 [1]: 39.6 µM (active)
9 | CC1CCCN(S(=O)(=O)c2ccc(Br)s2)C1 (centres undefined) | > 195 µM (not active) | –
10 | O=c1ccc2ccc(OCCOc3cccc(Cl)c3)cc2o1 | – | CC50 [1]: 42.4 µM (active)
11 | COCCNC(=O)CCc1nnc(C2(c3ccc(Cl)cc3)CCC2)o1 | > 195 µM (not active) | –
12 | CNCCCCOc1ccc(C(C)(C)C)cc1Cl | – | EC50 [2]: 0.834 µM (active); EC50 [3]: 9.37 µM (active)
13 | CCN(CC)CCCN/C(C)=C1\C(=O)NC(=O)N(C2CCCCC2)C1=O | – | EC50 [2]: 0.35 µM (active); EC50 [3]: > 60 µM (not active)
14 | O=C(O)CCn1cc(/C=C2\NC(=S)N(c3ccccc3)C2=O)c(-c2ccc(Br)cc2)n1 | > 195 µM (not active) | –
15 | N#Cc1cccc(C#N)c1Oc1ccc(S(=O)(=O)Nc2ccc(Cl)cc2)cc1 | > 195 µM (not active) | –
16 | O=S(=O)(NCC(c1cccnc1)N1CCN(Cc2ccccc2)CC1)c1ccccc1 (centres undefined) | – | EC50 [2]: 0.634 µM (active); EC50 [3]: > 60 µM (not active)
17 | C=CCSc1nc(N)cc(O)n1 | > 195 µM (not active) | –
18 | CN(C)C(=O)N1CCC(C(=O)NCc2ccc(F)cc2Cl)CC1 | > 195 µM (not active) | –

Row | Structure (SMILES) | EC50 [4] | further results
19 | Cc1cc(C(=O)NNS(=O)(=O)c2ccc(F)cc2)nn1C(C)(C)C | > 195 µM (not active) | –
20 | O=[N+]([O-])c1ccc(N2CCN(Cc3ccc4c(c3)OCO4)CC2)nc1 | > 195 µM (not active) | –
21 | COc1ccc(Cn2c(SC)nc3ccccc32)cc1[N+](=O)[O-] | > 195 µM (not active) | –
22 | CCN(CC)CCn1c(=N)n(CCOc2ccccc2)c2ccccc21 | – | EC50 [2]: 1.43 µM (active)
23 | COc1cc(C(C(=O)NCc2ccccc2)N(Cc2ccco2)C(=O)c2cnccn2)cc(OC)c1OC (centres undefined) | > 195 µM (not active) | –
24 | CCC(C)c1ccccc1NC(=O)c1cc2cccc([N+](=O)[O-])c2[nH]1 (centres undefined) | – | EC50 [2]: 1.35 µM (active); EC50 [3]: > 60 µM (not active)
25 | CCC(C(=O)NC(C)(C)C)N(Cc1ccc(F)cc1)C(=O)c1snc(C(N)=O)c1N (centres undefined) | > 195 µM (not active) | –
26 | CCN1c2nc3c(C)cccn3c(=O)c2CC2(C(=O)N(C)C(=O)N(C)C2=O)C1C (centres undefined) | > 195 µM (not active) | –
27 | CCN(CC)CCNc1cc(C)c(C#N)c2nc3ccccc3n12 | – | EC50 [2]: 1.09 µM (active); EC50 [3]: > 60 µM (not active)
28 | Cn1c(/C=C/c2ccccc2)nc2ccccc2c1=O | > 195 µM (not active) | –
29 | COc1ccc(Cn2nnnc2C(c2cc3cccc(C)c3nc2O)N2CCN(C)CC2)cc1 (centres undefined) | > 195 µM (not active) | –
30 | O=C1NC(=O)C2(CCc3ccccc32)N1 (centres undefined) | > 195 µM (not active) | –
31 | Cn1c(=O)c2c(nc(Oc3cccc(O)c3)n2C)n(C)c1=O | > 195 µM (not active) | –
32 | COc1ccc(/C=N/c2c(-c3ccc(OC)cc3)nc3n2CCS3)cc1 | > 195 µM (not active) | –
33 | CCc1cccc(Nc2c([N+](=O)[O-])cc(C(=O)N3CC(=O)Nc4ccccc43)cc2[N+](=O)[O-])c1 | – | EC50 [2]: 1.1 µM (active); EC50 [3]: > 30 µM (not active)
34 | COc1ccc(CC(=O)Nc2cc(C)on2)cc1 | > 195 µM (not active) | –
35 | CCOC(=O)C1=C(C)N(CCC(=O)O)C(=O)NC1c1ccccc1Cl (centres undefined) | > 195 µM (not active) | –
36 | CC(C)OCCCn1c(NN)nc2ccccc2c1=O | > 195 µM (not active) | –
